Experimental data: PubChem BioAssay (NCI)
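Grown in 96-well plates, cells were treated for 48 hours with each compound at five concentrations. Insufficient inhibition: endpoint recorded as highest concentration tested. Here, GI50 denotes the concentration required for 50% inhibition of growth. TGI: concentration producing complete growth inhibition.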

Legend:
Assay in all cases: NCI anticancer screen, dose series, 48 h
[1] = system: HS 578T breast
[2] = system: M14 melanoma
[3] = system: RPMI-8226 leukemia
[4] = system: K-562 leukemia
[5] = system: OVCAR-3 ovarian
[6] = system: HCT-116 colon
[7] = system: MOLT-4 leukemia
[8] = system: UACC-62 melanoma
[9] = system: EKVX NSCLC
[10] = system: UO-31 renal
[11] = system: CAKI-1 renal
[12] = system: SK-MEL-2 melanoma
[13] = system: SK-MEL-5 melanoma
[14] = system: DU-145 prostate
[15] = system: SN12C renal
[16] = system: A549 NSCLC
[17] = system: A498 renal
[18] = system: HCC-2998 colon
[19] = system: HL-60(TB) leukemia
[20] = system: SW-620 colon
[21] = system: HOP-92 NSCLC
[22] = system: MCF7 breast
[23] = system: UACC-257 melanoma
[24] = system: KM12 colon
[25] = system: NCI-H460 lung
[26] = system: RXF 393 renal
[27] = system: BT-549 breast
[28] = system: CCRF-CEM leukemia
[29] = system: MDA-MB-231 breast
[30] = system: NCI-H522 lung
[31] = system: COLO 205 colon
[32] = system: T-47D breast
[33] = system: 786-0 renal
[34] = system: NCI/ADR-RES ovarian
[35] = system: ACHN renal
[36] = system: LOX IMVI melanoma
[37] = system: SF-539 CNS
[38] = system: MDA-MB-435
[39] = system: MALME-3M melanoma
[40] = system: PC-3 prostate
[41] = system: SR leukemia
[42] = system: SF-268 CNS
[43] = system: SF-295 CNS
[44] = system: HCT-15 colon
[45] = system: NCI-H23 lung
[46] = system: OVCAR-8 ovarian
[47] = system: HOP-62 NSCLC
[48] = system: HT29 colon
[49] = system: OVCAR-4 ovarian
[50] = system: NCI-H226 lung
[51] = system: U251 CNS
[52] = system: SK-MEL-28 melanoma
[53] = system: SNB-75 CNS
[54] = system: OVCAR-5 ovarian

**Q.** COC(=O)c1c2c(c(C)[n+]([O-])c1C)C(=O)C(NCc1ccc(F)c(F)c1)=CC2=O was tested. Which GI50 [1] did it give?
**A.** The GI50 was 2760 nM.

**Q.** What about the TGI [1] of the same compound?
**A.** The TGI was 11900 nM.

**Q.** What about the GI50 [2] of the same compound?
**A.** Its GI50 is 1640 nM.

**Q.** What about the TGI [2] of the same compound?
**A.** The TGI was 3600 nM.

**Q.** And the GI50 [3]?
**A.** The GI50 was 2050 nM.

**Q.** And the TGI [3]?
**A.** The TGI was 5600 nM.

**Q.** What about the GI50 [4] of the same compound?
**A.** Its GI50 is 2230 nM.

**Q.** What about the TGI [4] of the same compound?
**A.** The TGI was 9590 nM.

**Q.** What about the GI50 [5] of the same compound?
**A.** The GI50 was 333 nM.

**Q.** And the TGI [5]?
**A.** Its TGI is 1090 nM.

**Q.** What about the GI50 [6] of the same compound?
**A.** The GI50 was 1650 nM.

**Q.** And the TGI [6]?
**A.** Its TGI is 5710 nM.

**Q.** And the GI50 [7]?
**A.** The GI50 was 2440 nM.

**Q.** What about the TGI [7] of the same compound?
**A.** Its TGI is 4860 nM.

**Q.** And the GI50 [8]?
**A.** Its GI50 is 1530 nM.

**Q.** And the TGI [8]?
**A.** Its TGI is 3350 nM.

**Q.** And the GI50 [9]?
**A.** The GI50 was 1840 nM.

**Q.** What about the TGI [9] of the same compound?
**A.** Its TGI is 4390 nM.

**Q.** What about the GI50 [10] of the same compound?
**A.** The GI50 was 1940 nM.

**Q.** And the TGI [10]?
**A.** Its TGI is 6900 nM.

**Q.** And the GI50 [11]?
**A.** Its GI50 is 2390 nM.

**Q.** And the TGI [11]?
**A.** Its TGI is 10500 nM.

**Q.** And the GI50 [12]?
**A.** Its GI50 is 2160 nM.

**Q.** What about the TGI [12] of the same compound?
**A.** The TGI was 6730 nM.

**Q.** And the GI50 [13]?
**A.** Its GI50 is 1140 nM.

**Q.** And the TGI [13]?
**A.** Its TGI is 2380 nM.

**Q.** And the GI50 [14]?
**A.** The GI50 was 2660 nM.

**Q.** What about the TGI [14] of the same compound?
**A.** The TGI was 7610 nM.

**Q.** What about the GI50 [15] of the same compound?
**A.** The GI50 was 1730 nM.

**Q.** What about the TGI [15] of the same compound?
**A.** The TGI was 4320 nM.

**Q.** What about the GI50 [16] of the same compound?
**A.** The GI50 was 2100 nM.

**Q.** And the TGI [16]?
**A.** Its TGI is 6170 nM.

**Q.** What about the GI50 [17] of the same compound?
**A.** Its GI50 is 1340 nM.

**Q.** And the TGI [17]?
**A.** The TGI was 5650 nM.

**Q.** And the GI50 [18]?
**A.** Its GI50 is 2260 nM.

**Q.** And the TGI [18]?
**A.** Its TGI is 5350 nM.

**Q.** And the GI50 [19]?
**A.** Its GI50 is 1860 nM.

**Q.** And the TGI [19]?
**A.** The TGI was 4400 nM.

**Q.** What about the GI50 [20] of the same compound?
**A.** The GI50 was 2170 nM.

**Q.** And the TGI [20]?
**A.** Its TGI is 6890 nM.

**Q.** And the GI50 [21]?
**A.** Its GI50 is 2810 nM.

**Q.** And the TGI [21]?
**A.** Its TGI is 6430 nM.

**Q.** And the GI50 [22]?
**A.** The GI50 was 1480 nM.

**Q.** What about the TGI [22] of the same compound?
**A.** Its TGI is 3360 nM.

**Q.** What about the GI50 [23] of the same compound?
**A.** Its GI50 is 1130 nM.

**Q.** And the TGI [23]?
**A.** Its TGI is 2960 nM.

**Q.** And the GI50 [24]?
**A.** The GI50 was 2160 nM.

**Q.** And the TGI [24]?
**A.** Its TGI is 8150 nM.

**Q.** What about the GI50 [25] of the same compound?
**A.** Its GI50 is 2130 nM.

**Q.** What about the TGI [25] of the same compound?
**A.** Its TGI is 10200 nM.

**Q.** What about the GI50 [26] of the same compound?
**A.** The GI50 was 2150 nM.

**Q.** And the TGI [26]?
**A.** Its TGI is 5960 nM.

**Q.** And the GI50 [27]?
**A.** Its GI50 is 2140 nM.

**Q.** What about the TGI [27] of the same compound?
**A.** The TGI was 5860 nM.

**Q.** What about the GI50 [28] of the same compound?
**A.** Its GI50 is 1720 nM.

**Q.** And the TGI [28]?
**A.** Its TGI is 4570 nM.

**Q.** What about the GI50 [29] of the same compound?
**A.** The GI50 was 1750 nM.

**Q.** And the TGI [29]?
**A.** Its TGI is 6090 nM.

**Q.** And the GI50 [30]?
**A.** Its GI50 is 1570 nM.

**Q.** What about the TGI [30] of the same compound?
**A.** Its TGI is 3750 nM.

**Q.** And the GI50 [31]?
**A.** The GI50 was 673 nM.

**Q.** What about the TGI [31] of the same compound?
**A.** Its TGI is 2100 nM.

**Q.** What about the GI50 [32] of the same compound?
**A.** The GI50 was 1750 nM.

**Q.** What about the TGI [32] of the same compound?
**A.** The TGI was 4330 nM.

**Q.** And the GI50 [33]?
**A.** Its GI50 is 3170 nM.

**Q.** What about the TGI [33] of the same compound?
**A.** The TGI was 12700 nM.

**Q.** What about the GI50 [34] of the same compound?
**A.** Its GI50 is 2300 nM.

**Q.** What about the TGI [34] of the same compound?
**A.** The TGI was 6860 nM.

**Q.** And the GI50 [35]?
**A.** Its GI50 is 2480 nM.

**Q.** What about the TGI [35] of the same compound?
**A.** The TGI was 7680 nM.

**Q.** What about the GI50 [36] of the same compound?
**A.** The GI50 was 1980 nM.

**Q.** What about the TGI [36] of the same compound?
**A.** The TGI was 6760 nM.

**Q.** And the GI50 [37]?
**A.** Its GI50 is 1920 nM.

**Q.** And the TGI [37]?
**A.** The TGI was 4120 nM.

**Q.** And the GI50 [38]?
**A.** The GI50 was 1700 nM.

**Q.** And the TGI [38]?
**A.** The TGI was 3150 nM.

**Q.** What about the GI50 [39] of the same compound?
**A.** Its GI50 is 238 nM.

**Q.** And the TGI [39]?
**A.** The TGI was 874 nM.

**Q.** And the GI50 [40]?
**A.** The GI50 was 1910 nM.

**Q.** What about the TGI [40] of the same compound?
**A.** The TGI was 7750 nM.

**Q.** What about the GI50 [41] of the same compound?
**A.** Its GI50 is 1620 nM.

**Q.** And the TGI [41]?
**A.** The TGI was 6240 nM.

**Q.** What about the GI50 [42] of the same compound?
**A.** Its GI50 is 2310 nM.

**Q.** What about the TGI [42] of the same compound?
**A.** The TGI was 7470 nM.

**Q.** What about the GI50 [43] of the same compound?
**A.** The GI50 was 1880 nM.

**Q.** What about the TGI [43] of the same compound?
**A.** Its TGI is 4640 nM.

**Q.** And the GI50 [44]?
**A.** The GI50 was 1600 nM.

**Q.** And the TGI [44]?
**A.** The TGI was 4020 nM.

**Q.** And the GI50 [45]?
**A.** Its GI50 is 1870 nM.

**Q.** And the TGI [45]?
**A.** The TGI was 4520 nM.

**Q.** What about the GI50 [46] of the same compound?
**A.** The GI50 was 1960 nM.

**Q.** And the TGI [46]?
**A.** The TGI was 7970 nM.

**Q.** And the GI50 [47]?
**A.** Its GI50 is 2450 nM.

**Q.** What about the TGI [47] of the same compound?
**A.** The TGI was 7470 nM.

**Q.** What about the GI50 [48] of the same compound?
**A.** Its GI50 is 1150 nM.

**Q.** And the TGI [48]?
**A.** The TGI was 7610 nM.

**Q.** What about the GI50 [49] of the same compound?
**A.** Its GI50 is 1030 nM.

**Q.** And the TGI [49]?
**A.** Its TGI is 2220 nM.

**Q.** And the GI50 [50]?
**A.** Its GI50 is 2690 nM.

**Q.** And the TGI [50]?
**A.** Its TGI is 8140 nM.

**Q.** And the GI50 [51]?
**A.** Its GI50 is 2060 nM.

**Q.** And the TGI [51]?
**A.** The TGI was 5850 nM.

**Q.** And the GI50 [52]?
**A.** The GI50 was 4110 nM.

**Q.** What about the TGI [52] of the same compound?
**A.** The TGI was 13800 nM.

**Q.** What about the GI50 [53] of the same compound?
**A.** Its GI50 is 2150 nM.

**Q.** What about the TGI [53] of the same compound?
**A.** The TGI was 7580 nM.

**Q.** And the GI50 [54]?
**A.** Its GI50 is 2500 nM.

**Q.** And the TGI [54]?
**A.** Its TGI is 6590 nM.
